Usually AC50 stands for the concentration at which the activity in the assay is half-maximal. Higher therefore signals activity only at high concentration.

Here are results for 16 molecules from ChEMBL document CHEMBL5291721, “A preclinical secondary pharmacology resource illuminates target-adverse drug reaction associations of marketed drugs” (Nat Commun, 2023).

The target of assay [1] is Sodium-dependent dopamine transporter (Homo sapiens, UniProt Q01959).
In assay [2] the target is T1, Thromboxane A2 receptor (Homo sapiens, UniProt P21731).
T1 sequence (P21731 whole entry): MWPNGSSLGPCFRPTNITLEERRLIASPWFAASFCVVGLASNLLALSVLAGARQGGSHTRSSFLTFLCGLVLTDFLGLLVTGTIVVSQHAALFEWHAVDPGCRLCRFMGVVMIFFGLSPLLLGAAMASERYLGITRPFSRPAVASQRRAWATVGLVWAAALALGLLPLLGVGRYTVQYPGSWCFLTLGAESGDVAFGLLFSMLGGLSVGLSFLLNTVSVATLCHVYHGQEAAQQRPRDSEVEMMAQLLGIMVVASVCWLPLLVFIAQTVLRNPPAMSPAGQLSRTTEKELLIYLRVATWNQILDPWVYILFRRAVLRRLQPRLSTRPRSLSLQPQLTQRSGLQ
In kind it is functional, cell-based.

Assay [3] addresses T2, Alpha-1A adrenergic receptor (Homo sapiens, UniProt P35348).
T2 sequence (P35348 whole entry): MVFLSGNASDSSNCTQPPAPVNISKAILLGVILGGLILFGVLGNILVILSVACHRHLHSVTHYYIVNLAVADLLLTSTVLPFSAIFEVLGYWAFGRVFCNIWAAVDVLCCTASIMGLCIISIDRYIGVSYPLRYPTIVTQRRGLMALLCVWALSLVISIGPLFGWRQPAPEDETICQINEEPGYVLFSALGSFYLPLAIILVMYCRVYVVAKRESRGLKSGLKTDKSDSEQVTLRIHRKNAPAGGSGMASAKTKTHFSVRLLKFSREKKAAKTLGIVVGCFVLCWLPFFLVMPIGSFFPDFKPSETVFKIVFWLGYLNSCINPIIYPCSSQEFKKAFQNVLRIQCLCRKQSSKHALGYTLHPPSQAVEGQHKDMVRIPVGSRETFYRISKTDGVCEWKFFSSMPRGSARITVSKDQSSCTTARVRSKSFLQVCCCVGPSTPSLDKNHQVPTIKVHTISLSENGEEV
In kind it is functional, cell-based.

Assay [4] deals with T3, 5-hydroxytryptamine receptor 1A (Homo sapiens, UniProt P08908).
T3 sequence (P08908 whole entry): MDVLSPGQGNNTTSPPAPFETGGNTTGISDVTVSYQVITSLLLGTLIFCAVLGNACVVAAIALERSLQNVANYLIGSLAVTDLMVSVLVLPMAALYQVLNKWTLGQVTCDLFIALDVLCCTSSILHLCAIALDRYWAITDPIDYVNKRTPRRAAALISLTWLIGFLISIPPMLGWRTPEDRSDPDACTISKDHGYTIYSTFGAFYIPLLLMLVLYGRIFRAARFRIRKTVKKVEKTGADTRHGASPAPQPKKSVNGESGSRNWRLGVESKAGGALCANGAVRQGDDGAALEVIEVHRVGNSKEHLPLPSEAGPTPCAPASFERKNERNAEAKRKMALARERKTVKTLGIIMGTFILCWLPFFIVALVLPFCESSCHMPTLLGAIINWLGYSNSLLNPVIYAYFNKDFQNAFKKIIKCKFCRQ

The target of assay [5] is 3',5'-cyclic-AMP phosphodiesterase 4A (Homo sapiens, UniProt P27815). Format: functional.
Chain of 3',5'-cyclic-AMP phosphodiesterase 4A (P27815 whole entry): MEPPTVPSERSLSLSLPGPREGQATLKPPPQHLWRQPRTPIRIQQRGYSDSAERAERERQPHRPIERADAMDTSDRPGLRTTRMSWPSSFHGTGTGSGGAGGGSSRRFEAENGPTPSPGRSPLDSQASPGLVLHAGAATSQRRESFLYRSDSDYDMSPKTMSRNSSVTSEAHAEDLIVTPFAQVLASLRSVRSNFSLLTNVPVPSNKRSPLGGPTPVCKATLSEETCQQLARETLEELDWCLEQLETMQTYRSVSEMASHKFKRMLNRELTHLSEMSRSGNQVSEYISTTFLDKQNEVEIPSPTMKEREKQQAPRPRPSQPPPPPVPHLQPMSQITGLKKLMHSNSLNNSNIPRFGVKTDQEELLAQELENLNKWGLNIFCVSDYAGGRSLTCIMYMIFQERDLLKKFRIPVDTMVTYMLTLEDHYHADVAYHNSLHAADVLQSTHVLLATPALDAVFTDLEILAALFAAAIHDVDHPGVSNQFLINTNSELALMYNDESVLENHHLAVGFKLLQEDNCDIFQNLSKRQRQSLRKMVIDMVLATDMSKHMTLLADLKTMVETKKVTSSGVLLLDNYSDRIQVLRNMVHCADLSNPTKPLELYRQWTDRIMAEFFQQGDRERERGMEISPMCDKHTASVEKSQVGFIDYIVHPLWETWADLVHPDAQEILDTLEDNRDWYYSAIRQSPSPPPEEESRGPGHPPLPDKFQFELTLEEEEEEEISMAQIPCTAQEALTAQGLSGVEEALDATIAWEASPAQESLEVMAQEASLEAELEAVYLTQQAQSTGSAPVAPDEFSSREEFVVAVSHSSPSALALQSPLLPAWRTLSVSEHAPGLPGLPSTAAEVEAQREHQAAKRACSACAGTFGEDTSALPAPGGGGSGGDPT
Assay [6] deals with Sodium-dependent noradrenaline transporter (Homo sapiens, UniProt P23975).
Chain of Sodium-dependent noradrenaline transporter (P23975 whole entry): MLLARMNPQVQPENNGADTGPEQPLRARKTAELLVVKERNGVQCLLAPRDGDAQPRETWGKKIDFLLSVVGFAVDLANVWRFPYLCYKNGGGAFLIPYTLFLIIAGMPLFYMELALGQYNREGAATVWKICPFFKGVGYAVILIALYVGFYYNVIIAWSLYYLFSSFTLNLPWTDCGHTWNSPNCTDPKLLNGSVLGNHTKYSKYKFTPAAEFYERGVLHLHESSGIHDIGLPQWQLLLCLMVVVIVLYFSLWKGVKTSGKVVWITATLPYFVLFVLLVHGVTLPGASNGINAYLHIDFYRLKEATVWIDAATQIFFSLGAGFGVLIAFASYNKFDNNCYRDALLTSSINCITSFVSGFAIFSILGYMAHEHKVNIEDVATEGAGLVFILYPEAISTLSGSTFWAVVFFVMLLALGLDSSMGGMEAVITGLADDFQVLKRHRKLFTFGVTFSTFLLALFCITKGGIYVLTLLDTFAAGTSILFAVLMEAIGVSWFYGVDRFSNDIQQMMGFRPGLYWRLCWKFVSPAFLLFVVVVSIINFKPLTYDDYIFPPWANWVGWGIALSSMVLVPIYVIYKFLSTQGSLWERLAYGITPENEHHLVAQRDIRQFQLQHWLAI
The target of assay [7] is D(1A) dopamine receptor (Homo sapiens, UniProt P21728).
Chain of D(1A) dopamine receptor (P21728 whole entry): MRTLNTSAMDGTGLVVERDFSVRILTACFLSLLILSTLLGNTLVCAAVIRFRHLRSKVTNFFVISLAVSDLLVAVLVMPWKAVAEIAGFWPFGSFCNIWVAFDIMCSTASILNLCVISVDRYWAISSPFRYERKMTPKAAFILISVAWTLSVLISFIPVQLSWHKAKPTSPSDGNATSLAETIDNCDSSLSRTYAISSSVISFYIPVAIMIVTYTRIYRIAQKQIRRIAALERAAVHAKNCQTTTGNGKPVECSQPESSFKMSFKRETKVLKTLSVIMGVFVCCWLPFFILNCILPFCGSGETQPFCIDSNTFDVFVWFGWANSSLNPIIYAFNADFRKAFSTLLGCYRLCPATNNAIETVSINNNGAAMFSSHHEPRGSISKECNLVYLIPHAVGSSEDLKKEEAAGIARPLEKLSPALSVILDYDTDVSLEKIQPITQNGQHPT
Assay [8] deals with T4, Progesterone receptor (Homo sapiens, UniProt P06401).
T4 sequence (P06401 whole entry): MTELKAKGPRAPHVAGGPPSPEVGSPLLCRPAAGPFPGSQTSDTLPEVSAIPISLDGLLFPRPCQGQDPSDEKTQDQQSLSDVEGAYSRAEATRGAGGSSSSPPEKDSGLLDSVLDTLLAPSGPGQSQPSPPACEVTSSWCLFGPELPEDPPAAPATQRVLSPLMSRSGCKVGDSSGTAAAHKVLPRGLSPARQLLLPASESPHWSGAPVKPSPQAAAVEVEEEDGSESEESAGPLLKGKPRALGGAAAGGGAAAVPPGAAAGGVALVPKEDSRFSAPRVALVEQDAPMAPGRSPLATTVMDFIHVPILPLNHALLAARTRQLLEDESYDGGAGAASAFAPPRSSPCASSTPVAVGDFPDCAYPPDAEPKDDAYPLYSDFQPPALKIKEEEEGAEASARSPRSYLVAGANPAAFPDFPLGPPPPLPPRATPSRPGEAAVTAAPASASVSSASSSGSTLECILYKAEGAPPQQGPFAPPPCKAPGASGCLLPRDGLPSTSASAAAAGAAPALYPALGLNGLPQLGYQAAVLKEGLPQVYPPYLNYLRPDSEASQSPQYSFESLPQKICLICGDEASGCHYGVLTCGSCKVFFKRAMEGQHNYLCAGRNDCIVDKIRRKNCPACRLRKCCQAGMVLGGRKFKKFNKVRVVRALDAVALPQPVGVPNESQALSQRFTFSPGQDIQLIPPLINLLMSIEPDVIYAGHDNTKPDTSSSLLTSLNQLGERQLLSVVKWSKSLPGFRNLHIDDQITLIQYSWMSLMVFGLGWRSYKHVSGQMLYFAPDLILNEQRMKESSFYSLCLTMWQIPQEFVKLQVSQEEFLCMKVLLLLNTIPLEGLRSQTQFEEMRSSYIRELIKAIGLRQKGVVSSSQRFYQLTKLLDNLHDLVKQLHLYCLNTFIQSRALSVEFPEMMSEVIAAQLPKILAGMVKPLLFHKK

Assay [9] concerns the target Sodium-dependent serotonin transporter (Homo sapiens, UniProt P31645).
Further: assay procedure not described here.

Chain of Sodium-dependent dopamine transporter (Q01959 whole entry): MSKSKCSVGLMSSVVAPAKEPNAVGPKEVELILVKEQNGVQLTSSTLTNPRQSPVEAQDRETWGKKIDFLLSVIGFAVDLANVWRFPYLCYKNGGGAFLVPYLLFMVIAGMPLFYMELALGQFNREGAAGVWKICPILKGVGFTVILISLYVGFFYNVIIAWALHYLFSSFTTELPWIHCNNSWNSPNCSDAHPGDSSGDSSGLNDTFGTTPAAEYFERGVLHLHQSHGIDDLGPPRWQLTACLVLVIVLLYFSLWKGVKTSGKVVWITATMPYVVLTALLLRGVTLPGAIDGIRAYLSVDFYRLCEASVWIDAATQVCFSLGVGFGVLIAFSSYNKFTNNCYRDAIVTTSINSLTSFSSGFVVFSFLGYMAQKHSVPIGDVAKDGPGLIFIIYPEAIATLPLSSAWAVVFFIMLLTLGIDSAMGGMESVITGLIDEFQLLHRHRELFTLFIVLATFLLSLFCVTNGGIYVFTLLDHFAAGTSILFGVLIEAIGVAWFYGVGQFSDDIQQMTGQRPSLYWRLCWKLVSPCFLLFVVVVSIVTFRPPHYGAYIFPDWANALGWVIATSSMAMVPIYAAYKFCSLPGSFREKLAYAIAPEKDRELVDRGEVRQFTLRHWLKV
Chain of Sodium-dependent serotonin transporter (P31645 whole entry): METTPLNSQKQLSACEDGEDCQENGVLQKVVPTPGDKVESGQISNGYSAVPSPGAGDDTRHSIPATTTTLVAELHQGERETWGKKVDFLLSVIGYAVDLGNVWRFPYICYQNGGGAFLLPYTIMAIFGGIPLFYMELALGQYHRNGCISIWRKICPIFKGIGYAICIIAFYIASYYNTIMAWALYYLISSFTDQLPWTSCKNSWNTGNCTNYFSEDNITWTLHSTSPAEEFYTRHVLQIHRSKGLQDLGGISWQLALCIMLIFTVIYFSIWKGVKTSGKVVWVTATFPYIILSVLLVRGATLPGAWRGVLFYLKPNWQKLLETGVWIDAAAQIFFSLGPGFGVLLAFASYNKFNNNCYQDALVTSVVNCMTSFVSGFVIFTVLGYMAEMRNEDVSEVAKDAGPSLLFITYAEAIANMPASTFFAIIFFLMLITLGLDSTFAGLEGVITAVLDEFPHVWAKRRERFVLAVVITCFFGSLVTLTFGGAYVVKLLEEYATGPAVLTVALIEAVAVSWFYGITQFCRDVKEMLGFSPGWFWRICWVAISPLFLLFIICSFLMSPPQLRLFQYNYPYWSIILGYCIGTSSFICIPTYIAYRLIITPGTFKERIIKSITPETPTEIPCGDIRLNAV

In the case of `CCCC1O[C@@H]2C[C@H]3[C@@H]4CCC5=CC(=O)C=C[C@]5(C)[C@H]4[C@@H](O)C[C@]3(C)[C@]2(C(=O)CO)O1` (stereo partly drawn) [BUDESONIDE], the AC50 in assay [1], in [2], in assay [3], in [4], in assay [5] and in assay [6] was greater than 30 µM each time. This molecule yielded a half-maximal activity concentration (AC50) in assay [7] greater than 30 µM.
As to `CC[C@H]1CN2CCc3cc(OC)c(OC)cc3[C@@H]2C[C@@H]1C[C@H]1NCCc2cc(OC)c(OC)cc21` [EMETINE], the AC50 in assay [1] was greater than 30 µM; in [2], greater than 30 µM; in assay [8], greater than 30 µM; in assay [4], 22.7 µM; in assay [5] it was greater than 30 µM; in assay [6] it was greater than 30 µM. This molecule came in with a half-maximal activity concentration (AC50) in assay [7] of 15.7 µM.
Regarding `O=c1[nH]c(=O)n([C@H]2C[C@H](O)[C@@H](CO)O2)cc1F` [FLOXURIDINE], the half-maximal activity concentration (AC50) in assay [1], in assay [2], in [8], in assay [3], in [4] and in assay [5] was greater than 30 µM throughout. Also, the AC50 in assay [6] and in assay [7] was greater than 30 µM throughout.
With `Clc1cc(Cl)c(OCC#CI)cc1Cl` [HALOPROGIN], the AC50 was 6.43 µM in assay [1]; greater than 30 µM in assay [2]; greater than 30 µM in assay [8]; greater than 30 µM in assay [3]; greater than 30 µM in [4]; greater than 30 µM in [5]. The AC50 in [6] is 5.12 µM.
Consider `O=c1[nH]c(=O)n([C@H]2C[C@H](O)[C@@H](CO)O2)cc1I` [IDOXURIDINE], for which the AC50 in [1], in [2], in assay [8], in [3], in assay [4] and in [5] was greater than 30 µM each time. Further, the AC50 in assay [6] and in assay [7] was greater than 30 µM each time.
Regarding `Cc1cc(C)c(NC(=O)CN(CC(=O)O)CC(=O)O)c(C)c1Br` [MEBROFENIN], the AC50 in [1], in [2], in assay [8], in assay [4], in assay [9] and in assay [5] was greater than 30 µM throughout. The AC50 in assay [6] and in [7] was greater than 30 µM throughout.
Take `COc1ccccc1N1CCN(CC(O)COc2cccc3ccccc23)CC1` (stereo not drawn) [NAFTOPIDIL]: the concentration at half-maximal activity (AC50) in assay [1] is 4.46 µM; in assay [2], greater than 3 µM; in assay [8] it was greater than 30 µM; in assay [4], 0.0086 µM; in assay [9] it was 1.43 µM; in assay [5], greater than 30 µM. For the same molecule, the AC50 came out at 6.01 µM in assay [6] and 2.08 µM in assay [7].
Regarding `COc1cc([C@@H]2c3cc4c(cc3[C@H](O)[C@H]3COC(=O)[C@H]23)OCO4)cc(OC)c1OC` [PODOFILOX], the concentration at half-maximal activity (AC50) is greater than 30 µM in [1]; greater than 30 µM in [2]; greater than 30 µM in assay [8]; greater than 30 µM in assay [3]; greater than 30 µM in assay [4]; greater than 10 µM in [5]. Further, the half-maximal activity concentration (AC50) in assay [6] and in [7] was greater than 30 µM throughout.
With `COc1cc2nc(N3CCN(C(=O)c4ccco4)CC3)nc(N)c2cc1OC` [PRAZOSIN], the AC50 in assay [1] is 30 µM; in assay [2] it was greater than 30 µM; in [8], greater than 30 µM; in assay [5], greater than 30 µM; in [6] it was greater than 30 µM; in assay [7], 8.64 µM.
On to `Cc1oc(=O)oc1CN1CCN(c2cc3c(cc2F)c(=O)c(C(=O)O)c2n3C(C)S2)CC1` (stereo not drawn) [PRULIFLOXACIN], for which the AC50 in [1], in assay [2], in assay [8], in assay [4], in assay [9] and in [5] was greater than 30 µM in each case. Besides, the half-maximal activity concentration (AC50) in [6] and in [7] was greater than 30 µM throughout.
`CCN1CCCC1CNC(=O)c1cc(S(N)(=O)=O)ccc1OC` (stereo not drawn) [SULPIRIDE]: the concentration at half-maximal activity (AC50) in assay [1], in assay [2], in assay [8], in assay [3], in assay [4] and in assay [5] was greater than 30 µM throughout. Moreover, the AC50 is greater than 30 µM in [6] and 16.5 µM in assay [7].
`O=c1[nH]c(=O)n(C2CCCO2)cc1F` (stereo not drawn) [TEGAFUR]: the AC50 in assay [1], in assay [2], in assay [8], in [3], in [4] and in assay [5] was greater than 30 µM in each case. Further, the concentration at half-maximal activity (AC50) in [6] and in [7] was greater than 30 µM in each case.
For the molecule `Nc1nc2nc[nH]c2c(=S)[nH]1` [THIOGUANINE], the AC50 in assay [1], in assay [2], in assay [8], in assay [3], in assay [4] and in assay [5] was greater than 30 µM each time. Moreover, the AC50 in [6] and in [7] was greater than 30 µM in each case.
For `COc1cc2c3cc1Oc1cc(ccc1O)C[C@@H]1c4c(cc(OC)c(O)c4Oc4ccc(cc4)C[C@@H]3N(C)CC2)CC[N+]1(C)C` [TUBOCURARINE], the AC50 in assay [1], in assay [2], in assay [8], in [3], in assay [4] and in [5] was greater than 30 µM in each case. Moreover, the AC50 in assay [6] and in [7] was greater than 30 µM each time.
Turning to `C=CCCCCCCCCC(=O)O` [UNDECYLENIC ACID], the AC50 in [1], in assay [2], in assay [8], in assay [4], in assay [9] and in assay [5] was greater than 30 µM each time. Moreover, the AC50 in assay [6] and in assay [7] was greater than 30 µM each time.
Consider `CC[C@]1(O)C[C@H]2CN(CCc3c([nH]c4ccccc34)[C@@](C(=O)OC)(c3cc4c(cc3OC)N(C=O)[C@H]3[C@@](O)(C(=O)OC)[C@H](OC(C)=O)[C@]5(CC)C=CCN6CC[C@]43[C@@H]65)C2)C1` [VINCRISTINE], for which the concentration at half-maximal activity (AC50) in assay [1], in assay [2], in [8], in assay [3], in [4] and in assay [5] was greater than 30 µM in each case. The half-maximal activity concentration (AC50) in assay [6] and in [7] was greater than 30 µM throughout.
